Source: patent US12559492B2, “BRAF degraders” (C4 Therapeutics, Inc., priority 2020, dated 2026)

Biological target: BRAF^V600E protein (Homo sapiens, UniProt P15056, V600E)
Test: HiBiT cellular BRAF V600E degradation assay
Format: cell-based
Conditions: 24 h incubation; for DC50: A375.10 cells (HiBiT tag knocked in at N-terminal of BRAF V600E), concentration at which 50% of total cellular BRAF V600E is degraded; for Emax: A375.10 cells, Emax = amount of residual protein remaining in the cell after compound treatment, read-out: HiBit 24 h Emax

Sequence of BRAF^V600E protein (P15056 whole entry V600E): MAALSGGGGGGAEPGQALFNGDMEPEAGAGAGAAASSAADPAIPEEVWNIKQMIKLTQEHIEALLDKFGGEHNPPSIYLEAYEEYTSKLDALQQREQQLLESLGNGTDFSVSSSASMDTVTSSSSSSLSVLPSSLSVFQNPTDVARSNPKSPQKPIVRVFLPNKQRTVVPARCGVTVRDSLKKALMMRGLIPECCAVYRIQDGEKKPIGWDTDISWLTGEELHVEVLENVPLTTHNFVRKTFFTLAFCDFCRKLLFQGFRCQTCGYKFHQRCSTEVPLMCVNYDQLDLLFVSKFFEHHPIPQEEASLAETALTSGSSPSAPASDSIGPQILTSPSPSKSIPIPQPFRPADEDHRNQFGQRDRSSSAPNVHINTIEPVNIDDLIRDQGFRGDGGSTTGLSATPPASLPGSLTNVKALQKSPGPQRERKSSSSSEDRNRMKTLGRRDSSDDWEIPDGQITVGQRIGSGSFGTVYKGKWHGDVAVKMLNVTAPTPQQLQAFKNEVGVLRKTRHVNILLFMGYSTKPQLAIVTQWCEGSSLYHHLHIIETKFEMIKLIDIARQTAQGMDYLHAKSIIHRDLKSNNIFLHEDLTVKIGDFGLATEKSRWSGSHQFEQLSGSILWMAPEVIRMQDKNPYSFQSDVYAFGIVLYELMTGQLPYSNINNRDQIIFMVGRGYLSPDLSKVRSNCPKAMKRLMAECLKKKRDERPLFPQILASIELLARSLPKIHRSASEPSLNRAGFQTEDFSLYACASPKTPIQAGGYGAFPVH

Row | Compound | DC50 | Emax
1 | CCN(C)S(=O)(=O)Nc1ccc(Cl)c(C(=O)c2c[nH]c3ncc(-c4ccc(N5CCN(C(=O)CC6(O)CCN(c7ccc(NC8CCC(=O)NC8=O)cc7F)CC6)CC5)nc4)cc23)c1F (stereo not shown) [Example 201, 3-[6-chloro-3-[[ethyl(methyl)sulfamoyl]amino]-2-fluoro-benzoyl]-5-[6-[4-[2-[1-[4-[(2,6-dioxo-3-piperidyl)amino]-2-fluoro-phenyl]-4-hydroxy-4-piperidyl]acetyl]piperazin-1-yl]-3-pyridyl]-1H-pyrrolo[2,3-b]pyridine] | 4.19 nM | 6.67%
2 | CCN(C)S(=O)(=O)Nc1ccc(F)c(C(=O)c2c[nH]c3ncc(-c4ccc(N5CCN(C(=O)CC6(O)CCN(c7ccc8c(N9CCC(=O)NC9=O)nn(C)c8c7)CC6)CC5)cc4)cc23)c1F [Example 202, 3-(2,4-dioxohexahydropyrimidin-1-yl)-6-[4-[2-[4-[4-[3-[3-[[ethyl(methyl)sulfamoyl]amino]-2,6-difluoro-benzoyl]-1H-pyrrolo[2,3-b]pyridin-5-yl]phenyl]piperazin-1-yl]-2-oxo-ethyl]-4-hydroxy-1-piperidyl]-1-methyl-indazole] | 2.1 nM | 7.44%
3 | CCN(C)S(=O)(=O)Nc1ccc(F)c(C(=O)c2c[nH]c3ncc(-c4cnc(N5CC6(C5)CN(C5CCN(c7ccc(NC8CCC(=O)NC8=O)cc7F)CC5)C6)nc4)cc23)c1F (stereo not shown) [Example 203, 5-[2-[2-[1-[4-[(2,6-dioxo-3-piperidyl)amino]-2-fluoro-phenyl]-4-piperidyl]-2,6-diazaspiro[3.3]heptan-6-yl]pyrimidin-5-yl]-3-[3-[[ethyl(methyl)sulfamoyl]amino]-2,6-difluoro-benzoyl]-1H-pyrrolo[2,3-b]pyridine] | 2.28 nM | 5.13%
4 | CCN(C)S(=O)(=O)Nc1ccc(F)c(C(=O)c2c[nH]c3ncc(-c4cnc(N5CCN(C(=O)CC6(O)CCN(c7ccc(NC8CCC(=O)NC8=O)cc7C(F)F)CC6)CC5)nc4)cc23)c1F (stereo not shown) [Example 204, 5-[2-[4-[2-[1-[2-(difluoromethyl)-4-[(2,6-dioxo-3-piperidyl)amino]phenyl]-4-hydroxy-4-piperidyl]acetyl]piperazin-1-yl]pyrimidin-5-yl]-3-[3-[[ethyl(methyl)sulfamoyl]amino]-2,6-difluoro-benzoyl]-1H-pyrrolo[2,3-b]pyridine] | 3.8 nM | 8.6%
5 | CCN(C)S(=O)(=O)Nc1ccc(F)c(C(=O)c2c[nH]c3ncc(-c4cnc(N5CCN(C(=O)CC6(O)CCN(c7ccc(C8CCC(=O)NC8=O)cc7F)CC6)CC5)c(F)c4)cc23)c1F (stereo not shown) [Example 205, 5-[6-[4-[2-[1-[4-(2,6-dioxo-3-piperidyl)-2-fluoro-phenyl]-4-hydroxy-4-piperidyl]acetyl]piperazin-1-yl]-5-fluoro-3-pyridyl]-3-[3-[[ethyl(methyl)sulfamoyl]amino]-2,6-difluoro-benzoyl]-1H-pyrrolo[2,3-b]pyridine] | 2.34 nM | 6.63%
6 | CCN(C)S(=O)(=O)Nc1ccc(F)c(C(=O)c2c[nH]c3ncc(-c4cnc(N5CCN(C(=O)CC6(O)CCN(c7ccc(N[C@H]8CCC(=O)NC8=O)cc7Cl)CC6)CC5)nc4)cc23)c1F [Example 206, 5-[2-[4-[2-[1-[2-chloro-4-[[(3S)-2,6-dioxo-3-piperidyl]amino]phenyl]-4-hydroxy-4-piperidyl]acetyl]piperazin-1-yl]pyrimidin-5-yl]-3-[3-[[ethyl(methyl)sulfamoyl]amino]-2,6-difluoro-benzoyl]-1H-pyrrolo[2,3-b]pyridine] | 2.28 nM | 6.9%
7 | CCN(C)S(=O)(=O)Nc1cc(F)cc(C(=O)c2c[nH]c3ncc(-c4ccc(N5CCN(C(=O)CC6(O)CCN(c7ccc(NC8CCC(=O)NC8=O)cc7F)CC6)CC5)nc4)cc23)c1F (stereo not shown) [Example 207, 5-[6-[4-[2-[1-[4-[(2,6-dioxo-3-piperidyl)amino]-2-fluoro-phenyl]-4-hydroxy-4-piperidyl]acetyl]piperazin-1-yl]-3-pyridyl]-3-[3-[[ethyl(methyl)sulfamoyl]amino]-2,5-difluoro-benzoyl]-1H-pyrrolo[2,3-b]pyridine] | 1.23 nM | 6.98%
8 | CCN(C)S(=O)(=O)Nc1ccc(F)c(C(=O)c2c[nH]c3ncc(-c4ccc(N5CCN(C(=O)CC6(O)CCN(c7ccc(N[C@H]8CCC(=O)NC8=O)cc7Cl)CC6)CC5)nc4)cc23)c1F [Example 208, 5-[6-[4-[2-[1-[2-chloro-4-[[(3S)-2,6-dioxo-3-piperidyl]amino]phenyl]-4-hydroxy-4-piperidyl]acetyl]piperazin-1-yl]-3-pyridyl]-3-[3-[[ethyl(methyl)sulfamoyl]amino]-2,6-difluoro-benzoyl]-1H-pyrrolo[2,3-b]pyridine] | 1.73 nM | 7.34%
9 | CCN(C)S(=O)(=O)Nc1ccc(F)c(C(=O)c2c[nH]c3ncc(-c4cnc(N5CCN(C(=O)CC6(O)CCN(c7ccc(N[C@@H]8CCC(=O)NC8=O)cc7Cl)CC6)CC5)nc4)cc23)c1F [Example 209, 5-[2-[4-[2-[1-[2-chloro-4-[[(3R)-2,6-dioxo-3-piperidyl]amino]phenyl]-4-hydroxy-4-piperidyl]acetyl]piperazin-1-yl]pyrimidin-5-yl]-3-[3-[[ethyl(methyl)sulfamoyl]amino]-2,6-difluoro-benzoyl]-1H-pyrrolo[2,3-b]pyridine] | 0.76 nM | 5.52%
10 | CCN(C)S(=O)(=O)Nc1ccc(F)c(C(=O)c2c[nH]c3ncc(-c4ccc(N5CCN(C(=O)CC6(O)CCN(c7ccc(NC8CCC(=O)NC8=O)cc7F)CC6)CC5)cc4F)cc23)c1F (stereo not shown) [Example 210, 5-[4-[4-[2-[1-[4-[(2,6-dioxo-3-piperidyl)amino]-2-fluoro-phenyl]-4-hydroxy-4-piperidyl]acetyl]piperazin-1-yl]-2-fluoro-phenyl]-3-[3-[[ethyl(methyl)sulfamoyl]amino]-2,6-difluoro-benzoyl]-1H-pyrrolo[2,3-b]pyridine] | 7.69 nM | 7.6%
11 | CCN(C)S(=O)(=O)Nc1ccc(F)c(C(=O)c2c[nH]c3ncc(-c4cnc(N5CCN(C(=O)CC6(O)CCN(c7ccc(NC8CCC(=O)NC8=O)cc7F)CC6)CC5)c(S(C)(=O)=O)c4)cc23)c1F (stereo not shown) [Example 211, 5-[6-[4-[2-[1-[4-[(2,6-dioxo-3-piperidyl)amino]-2-fluoro-phenyl]-4-hydroxy-4-piperidyl]acetyl]piperazin-1-yl]-5-methylsulfonyl-3-pyridyl]-3-[3-[[ethyl(methyl)sulfamoyl]amino]-2,6-difluoro-benzoyl]-1H-pyrrolo[2,3-b]pyridine] | 11.3 nM | 9.3%
12 | CCN(C)S(=O)(=O)Nc1ccc(F)c(C(=O)c2c[nH]c3ncc(-c4ccc(N5CCN(C(=O)CC6(O)CCN(c7ccc(NC8CCC(=O)NC8=O)cc7F)CC6)CC5)c(C(F)(F)F)c4)cc23)c1F (stereo not shown) [Example 212, 5-[4-[4-[2-[1-[4-[(2,6-dioxo-3-piperidyl)amino]-2-fluoro-phenyl]-4-hydroxy-4-piperidyl]acetyl]piperazin-1-yl]-3-(trifluoromethyl)phenyl]-3-[3-[[ethyl(methyl)sulfamoyl]amino]-2,6-difluoro-benzoyl]-1H-pyrrolo[2,3-b]pyridine] | 32.8 nM | 7.02%
13 | CCN(C)S(=O)(=O)Nc1ccc(F)c(C(=O)c2c[nH]c3ncc(-c4cnc(N5CCN(C(=O)CC6(O)CCN(c7ccc(N8CCC(=O)NC8=O)cc7Cl)CC6)CC5)nc4)cc23)c1F [Example 213, 5-[2-[4-[2-[1-[2-chloro-4-(2,4-dioxohexahydropyrimidin-1-yl)phenyl]-4-hydroxy-4-piperidyl]acetyl]piperazin-1-yl]pyrimidin-5-yl]-3-[3-[[ethyl(methyl)sulfamoyl]amino]-2,6-difluoro-benzoyl]-1H-pyrrolo[2,3-b]pyridine] | 0.42 nM | 6.06%
14 | CCN(C)S(=O)(=O)Nc1ccc(F)c(C(=O)c2c[nH]c3ncc(-c4ccc(N5CCN(C(=O)CC6(O)CCN(c7ccc(N8CCC(=O)NC8=O)cc7Cl)CC6)CC5)nc4)cc23)c1F [Example 214, 5-[6-[4-[2-[1-[2-chloro-4-(2,4-dioxohexahydropyrimidin-1-yl)phenyl]-4-hydroxy-4-piperidyl]acetyl]piperazin-1-yl]-3-pyridyl]-3-[3-[[ethyl(methyl)sulfamoyl]amino]-2,6-difluoro-benzoyl]-1H-pyrrolo[2,3-b]pyridine] | 0.65 nM | 5.48%
15 | CCN(C)S(=O)(=O)Nc1ccc(F)c(C(=O)c2c[nH]c3ncc(-c4ccc(N5CCN(C(=O)CC6(O)CCN(c7cc(F)c(N8CCC(=O)NC8=O)cc7Cl)CC6)CC5)nc4)cc23)c1F [Example 215, 5-[6-[4-[2-[1-[2-chloro-4-(2,4-dioxohexahydropyrimidin-1-yl)-5-fluoro-phenyl]-4-hydroxy-4-piperidyl]acetyl]piperazin-1-yl]-3-pyridyl]-3-[3-[[ethyl(methyl)sulfamoyl]amino]-2,6-difluoro-benzoyl]-1H-pyrrolo[2,3-b]pyridine] | 2.71 nM | 7.87%
16 | CCN(C)S(=O)(=O)Nc1ccc(F)c(C(=O)c2c[nH]c3ncc(-c4cnc(N5CCN(C(=O)CC6(O)CCN(c7cc(F)c(N8CCC(=O)NC8=O)cc7Cl)CC6)CC5)nc4)cc23)c1F [Example 216, 5-[2-[4-[2-[1-[2-chloro-4-(2,4-dioxohexahydropyrimidin-1-yl)-5-fluoro-phenyl]-4-hydroxy-4-piperidyl]acetyl]piperazin-1-yl]pyrimidin-5-yl]-3-[3-[[ethyl(methyl)sulfamoyl]amino]-2,6-difluoro-benzoyl]-1H-pyrrolo[2,3-b]pyridine] | 1.33 nM | 7.4%
17 | CN(C1CC1)S(=O)(=O)Nc1ccc(F)c(C(=O)c2c[nH]c3ncc(-c4ccc(N5CCN(C(=O)CC6(O)CCN(c7ccc(NC8CCC(=O)NC8=O)cc7F)CC6)CC5)nc4)cc23)c1F (stereo not shown) [Example 217, 3-[3-[[cyclopropyl(methyl)sulfamoyl]amino]-2,6-difluoro-benzoyl]-5-[6-[4-[2-[1-[4-[(2,6-dioxo-3-piperidyl)amino]-2-fluoro-phenyl]-4-hydroxy-4-piperidyl]acetyl]piperazin-1-yl]-3-pyridyl]-1H-pyrrolo[2,3-b]pyridine] | 62.2 nM | 21%
